Data from patent publication US11673897B2, “Compounds for the treatment of kinase-dependent disorders” (Exelixis, Inc., priority 2018, dated 2023).

What was measured:
Format in all cases: cell-based
[1] = target: AXL (Homo sapiens (Human), UniProt P30530); assay: AXL autophosphorylation ELISA in A-172 cells; settings: cellular, Gas6-stimulated, phospho-AXL ELISA
Protocol: A-172 glioblastoma cells (ATCC #CRL-1620) were seeded at 2.5×10^5 cells/well onto 24-well plates (Greiner #662165), in […] (Thermo Fisher #11995-040) containing 10% FBS (Thermo Fisher #26140-079), […] (Thermo Fisher #11140-050), […] (Thermo Fisher #35050-061), and 1% Penicillin Streptomycin (Thermo Fisher #15140-122). A-172 cells were incubated at 37° C., […] for 24 hand then starved for 24 h in serum-free medium. Test compounds were serially diluted to produce an 8-point dose curve in fresh serum-free medium to a final concentration of 0.3% DMSO (vehicle) and added to the cells and incubated for 1 h. Cells were then stimulated with 1 μg/mL recombinant human Gas6 (R&D Systems #885-GSB-500) for 15 min, washed with cold PBS, and immediately lysed with 150 μL of cold 1× lysis buffer [20 mM Tris, 137 mM sodium chloride, 2 mM EDTA, 10% glycerol, 1% NP-40 alternative, 1 mM activated sodium orthovanadate, 1 mM PefaBloc SC (Sigma-Aldrich #11429868001), protease/phosphatase inhibitor tablet (Thermo Fisher #A32959)]. Lysates were collected and 100 μL/well added into the human phospho-AXL DuoSet IC ELISA (R&D Systems #DYC2228-2). Assay was performed according to manufacturer's instructions and sample phospho-AXL concentrations were extrapolated using human phospho-AXL control (R&D Systems #841645) as a standard. Positive control wells (100% activity) contained Gas6-stimulated, DMSO-treated cell lysates. Negative control wells (0% activity) contained Gas6-stimulated, reference inhibitor-treated cell lysates. IC50 values were calculated by nonlinear regression analysis using a 4-parameter logistic curve fit in ActivityBase XE (IDBS).

[2] = target: Met (Homo sapiens (Human), UniProt P08581); assay: Met autophosphorylation ELISA in PC-3 cells; settings: cellular, HGF-stimulated, phospho-Met ELISA, read-out: c-Met IC50
Protocol: PC-3 prostate cancer cells (ATCC #CRL-1435) were seeded at 4×10^4 cells/well onto 24-well plates (Greiner #662165), in DMEM (Thermo Fisher #11995-040) containing 10% FBS (Thermo Fisher #26140-079), 1% MEM NEAA (Thermo Fisher #11140-050), 1% GlutaMax (Thermo Fisher #35050-061), and 1% Penicillin Streptomycin (Thermo Fisher #15140-122). PC-3 cells were incubated at 37° C., 5% CO2 for 24 h and then starved for 3 h in serum-free medium. Test compounds were serially diluted to produce an 8-point dose curve in fresh serum-free medium to a final concentration of 0.3% DMSO (vehicle) and added to the cells and incubated for 1 h. Cells were then stimulated with 100 ng/mL recombinant human HGF (R&D Systems #294-HG-250) for 10 min, washed with cold PBS, and immediately lysed with 130 μL of cold 1× lysis buffer [20 mM Tris, 137 mM sodium chloride, 2 mM EDTA, 10% glycerol, 1% NP-40 alternative, 1 mM activated sodium orthovanadate, 1 mM PefaBloc SC (Sigma-Aldrich #11429868001), and protease/phosphatase inhibitor tablet (Thermo Fisher #A32959)]. Lysates were clarified by centrifugation and 100 μL/well added into the PathScan phospho-Met (panTyr) Sandwich ELISA (Cell Signaling Technology #7333). Assay was performed according to manufacturer's instructions. Positive control wells (100% activity) contained HGF-stimulated, DMSO-treated cell lysates. Negative control wells (0% activity) contained HGF-stimulated, reference inhibitor-treated cell lysates. IC50 values were calculated by nonlinear regression analysis using a 4-parameter logistic curve fit in ActivityBase XE (IDBS).

[3] = target: KDR (Homo sapiens (Human), UniProt P35968); assay: KDR autophosphorylation ELISA in HUVEC cells; settings: cellular, VEGF165-stimulated, phospho-KDR ELISA
Protocol: Human umbilical vein endothelial cells or HUVEC (Lonza #C2519A) were seeded at 2×10^4 cells/well onto 96-well plates (Corning #3904), in EGM-2 growth medium (Lonza #CC-3162) containing 1% Penicillin Streptomycin (Thermo Fisher #15140-122). HUVEC cells were incubated at 37° C., 5% CO2 for 24 h and then starved for 24 h in serum-free EBM-2 basal medium (Lonza #CC-3156) containing 1% Penicillin Streptomycin. Test compounds were serially diluted to produce an 8-point dose curve in fresh serum-free medium to a final concentration of 0.3% DMSO (vehicle) and added to the cells and incubated for 1 h. Cells were then stimulated with 100 ng/mL recombinant human VEGF165 (R&D Systems #293-VE-500) for 5 min, washed with cold PBS, and immediately lysed with 130 μL of cold 1× lysis buffer [20 mM Tris, 137 mM sodium chloride, 2 mM EDTA, 10% glycerol, 1% NP-40 alternative, 1 mM activated sodium orthovanadate, 1 mM PefaBloc SC (Sigma-Aldrich #11429868001), protease/phosphatase inhibitor tablet (Thermo Fisher #A32959)]. Lysates were collected and 100 μL/well added into the human phospho-KDR DuoSet IC ELISA (R&D Systems #DYC1766-2). Assay was performed according to manufacturer's instructions and sample phospho-KDR concentrations were extrapolated using human phospho-KDR control (R&D Systems #841421) as a standard. Positive control wells (100% activity) contained VEGF165-stimulated, DMSO-treated cell lysates. Negative control wells (0% activity) contained non-stimulated cell lysates. IC50 values were calculated by nonlinear regression analysis using a 4-parameter logistic curve fit in ActivityBase XE (IDBS).

Chain of AXL (P30530 26-894): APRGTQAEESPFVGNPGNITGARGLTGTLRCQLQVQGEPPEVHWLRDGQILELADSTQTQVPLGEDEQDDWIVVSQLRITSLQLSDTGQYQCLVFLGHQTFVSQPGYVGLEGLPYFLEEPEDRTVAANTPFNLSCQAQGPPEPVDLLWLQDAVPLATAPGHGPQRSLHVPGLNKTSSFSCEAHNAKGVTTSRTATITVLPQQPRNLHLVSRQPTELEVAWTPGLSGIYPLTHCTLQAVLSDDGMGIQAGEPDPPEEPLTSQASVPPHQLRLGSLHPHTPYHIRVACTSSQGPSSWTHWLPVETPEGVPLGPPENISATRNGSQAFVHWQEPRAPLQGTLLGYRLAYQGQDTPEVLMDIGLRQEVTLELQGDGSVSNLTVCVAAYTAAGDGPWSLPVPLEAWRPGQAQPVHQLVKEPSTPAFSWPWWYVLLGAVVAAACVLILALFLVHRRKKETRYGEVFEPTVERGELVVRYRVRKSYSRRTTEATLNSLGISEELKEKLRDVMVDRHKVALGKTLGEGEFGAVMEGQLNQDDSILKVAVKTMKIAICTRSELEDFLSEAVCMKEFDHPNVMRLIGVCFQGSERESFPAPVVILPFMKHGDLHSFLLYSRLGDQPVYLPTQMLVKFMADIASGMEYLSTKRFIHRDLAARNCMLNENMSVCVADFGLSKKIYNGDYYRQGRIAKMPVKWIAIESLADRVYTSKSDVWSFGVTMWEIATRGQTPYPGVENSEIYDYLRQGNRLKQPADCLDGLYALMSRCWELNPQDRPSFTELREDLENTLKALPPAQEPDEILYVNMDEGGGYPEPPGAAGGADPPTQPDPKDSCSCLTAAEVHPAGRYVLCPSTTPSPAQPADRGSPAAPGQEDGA
Chain of KDR (P35968 20-1356): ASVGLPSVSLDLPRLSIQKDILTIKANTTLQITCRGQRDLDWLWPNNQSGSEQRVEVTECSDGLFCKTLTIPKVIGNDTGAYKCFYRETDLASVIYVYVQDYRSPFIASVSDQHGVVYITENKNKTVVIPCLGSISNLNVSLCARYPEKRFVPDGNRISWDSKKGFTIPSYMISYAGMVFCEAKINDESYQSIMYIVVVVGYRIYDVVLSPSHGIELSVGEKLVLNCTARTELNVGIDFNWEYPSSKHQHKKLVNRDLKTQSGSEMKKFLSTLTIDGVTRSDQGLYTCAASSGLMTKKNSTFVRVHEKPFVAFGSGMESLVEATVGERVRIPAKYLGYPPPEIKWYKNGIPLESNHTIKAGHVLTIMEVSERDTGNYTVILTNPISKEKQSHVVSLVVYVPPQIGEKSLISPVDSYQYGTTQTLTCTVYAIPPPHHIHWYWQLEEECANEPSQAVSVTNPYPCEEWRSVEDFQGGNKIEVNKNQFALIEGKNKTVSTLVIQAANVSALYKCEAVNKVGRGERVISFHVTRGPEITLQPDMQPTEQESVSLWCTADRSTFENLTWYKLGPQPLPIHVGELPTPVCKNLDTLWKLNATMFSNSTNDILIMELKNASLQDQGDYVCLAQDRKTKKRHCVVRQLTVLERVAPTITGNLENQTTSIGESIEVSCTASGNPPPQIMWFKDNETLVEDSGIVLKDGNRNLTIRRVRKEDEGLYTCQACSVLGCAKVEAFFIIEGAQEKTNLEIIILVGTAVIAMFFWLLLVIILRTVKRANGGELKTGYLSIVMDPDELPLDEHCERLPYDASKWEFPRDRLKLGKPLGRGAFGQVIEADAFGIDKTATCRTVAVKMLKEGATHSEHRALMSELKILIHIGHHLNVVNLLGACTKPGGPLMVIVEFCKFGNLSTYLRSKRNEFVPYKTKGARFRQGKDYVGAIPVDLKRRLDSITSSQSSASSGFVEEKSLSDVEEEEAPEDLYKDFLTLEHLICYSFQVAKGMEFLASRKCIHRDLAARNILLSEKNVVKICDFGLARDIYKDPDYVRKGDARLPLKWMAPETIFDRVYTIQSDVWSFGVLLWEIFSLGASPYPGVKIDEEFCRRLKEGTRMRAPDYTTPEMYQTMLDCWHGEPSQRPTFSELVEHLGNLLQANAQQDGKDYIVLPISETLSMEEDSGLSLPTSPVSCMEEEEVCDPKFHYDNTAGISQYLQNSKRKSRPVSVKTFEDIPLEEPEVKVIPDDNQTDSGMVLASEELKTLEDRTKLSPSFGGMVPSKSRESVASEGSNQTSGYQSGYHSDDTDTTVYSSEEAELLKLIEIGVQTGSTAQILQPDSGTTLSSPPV
Chain of Met (P08581 25-1390): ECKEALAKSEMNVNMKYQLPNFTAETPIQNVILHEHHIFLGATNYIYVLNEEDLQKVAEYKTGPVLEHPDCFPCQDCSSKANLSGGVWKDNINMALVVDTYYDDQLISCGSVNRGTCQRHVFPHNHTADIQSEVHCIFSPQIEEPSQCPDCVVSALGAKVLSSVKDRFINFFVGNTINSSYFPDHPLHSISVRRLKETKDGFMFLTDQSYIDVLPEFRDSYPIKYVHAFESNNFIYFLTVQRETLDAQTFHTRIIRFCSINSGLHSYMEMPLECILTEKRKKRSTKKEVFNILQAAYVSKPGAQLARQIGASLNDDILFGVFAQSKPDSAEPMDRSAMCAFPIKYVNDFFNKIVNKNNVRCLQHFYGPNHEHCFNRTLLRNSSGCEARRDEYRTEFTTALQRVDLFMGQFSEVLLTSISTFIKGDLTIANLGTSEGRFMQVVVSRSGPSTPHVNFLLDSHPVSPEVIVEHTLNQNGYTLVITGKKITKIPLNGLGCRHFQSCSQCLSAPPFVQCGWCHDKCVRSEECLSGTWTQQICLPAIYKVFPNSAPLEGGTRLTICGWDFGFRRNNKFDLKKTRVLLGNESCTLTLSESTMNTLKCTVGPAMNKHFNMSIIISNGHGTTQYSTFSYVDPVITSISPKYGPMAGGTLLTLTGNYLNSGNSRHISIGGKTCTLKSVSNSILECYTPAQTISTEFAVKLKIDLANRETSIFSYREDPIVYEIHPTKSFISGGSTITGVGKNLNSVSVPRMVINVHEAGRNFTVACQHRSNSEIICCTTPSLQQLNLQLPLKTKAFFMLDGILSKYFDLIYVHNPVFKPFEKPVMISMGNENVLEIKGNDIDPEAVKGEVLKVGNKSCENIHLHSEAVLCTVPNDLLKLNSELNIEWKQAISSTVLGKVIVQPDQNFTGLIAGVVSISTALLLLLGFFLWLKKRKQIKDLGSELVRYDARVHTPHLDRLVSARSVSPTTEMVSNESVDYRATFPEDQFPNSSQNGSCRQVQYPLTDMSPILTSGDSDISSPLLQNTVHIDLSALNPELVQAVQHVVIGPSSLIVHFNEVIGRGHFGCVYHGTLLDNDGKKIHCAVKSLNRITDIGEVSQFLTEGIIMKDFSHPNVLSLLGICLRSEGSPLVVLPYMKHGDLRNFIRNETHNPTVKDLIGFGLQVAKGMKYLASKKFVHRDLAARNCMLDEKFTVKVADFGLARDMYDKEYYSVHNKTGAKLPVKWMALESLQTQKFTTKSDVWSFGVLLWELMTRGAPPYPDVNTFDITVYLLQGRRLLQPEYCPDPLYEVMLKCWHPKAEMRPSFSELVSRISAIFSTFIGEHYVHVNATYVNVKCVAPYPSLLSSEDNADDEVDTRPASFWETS

| IC50 [1] | IC50 [2] | IC50 [3] | SMILES |
| --- | --- | --- | --- |
| > 300 nM | > 300 nM | > 300 nM | COc1cc2nccc(Oc3ncc(NC(=O)C4(C(=O)Nc5ccc(F)cc5)CC4)cc3F)c2cc1C(=O)O [Compound 15, 4-[3-Fluoro-5-[[1-[(4-fluorophenyl)carbamoyl]cyclopropanecarbonyl]amino]pyridin-2-yl]oxy-7-methoxyquinoline-6-carboxylic acid] |
| > 300 nM | > 300 nM | > 300 nM | COCc1noc(-c2cc3c(Oc4ncc(NC(=O)C5(C(=O)Nc6ccc(F)cc6)CC5)cc4F)ccnc3cc2OC)n1 [Compound 25, 1-N′-[5-Fluoro-6-[7-methoxy-6-[3-(methoxymethyl)-1,2,4-oxadiazol-5-yl]quinolin-4-yl]oxypyridin-3-yl]-1-N-(4-fluorophenyl)cyclopropane-1,1-dicarboxamide] |
| > 300 nM | > 300 nM | > 300 nM | COCCc1noc(-c2cc3c(Oc4ncc(NC(=O)C5(C(=O)Nc6ccc(F)cc6)CC5)cc4F)ccnc3cc2OC)n1 [Compound 26, 1-N′-[5-Fluoro-6-[7-methoxy-6-[3-(2-methoxyethyl)-1,2,4-oxadiazol-5-yl]quinolin-4-yl]oxypyridin-3-yl]-1-N-(4-fluorophenyl)cyclopropane-1,1-dicarboxamide] |
| > 300 nM | > 300 nM | > 300 nM | CCc1noc(-c2cc3c(Oc4ncc(NC(=O)C5(C(=O)Nc6ccc(F)cc6)CC5)cc4F)ccnc3cc2OC)n1 [Compound 27, 1-N′-[6-[6-(3-Ethyl-1,2,4-oxadiazol-5-yl)-7-methoxyquinolin-4-yl]oxy-5-fluoropyridin-3-yl]-1-N-(4-fluorophenyl)cyclopropane-1,1-dicarboxamide] |
| 10 to 100 nM | 10 to 100 nM | > 300 nM | CNC(=O)c1cc2c(Oc3ncc(NC(=O)C4(C(=O)Nc5ccc(F)cc5)CC4)cc3F)ccnc2cc1OCCO [Compound 44, 1-N′-[5-Fluoro-6-[7-(2-hydroxyethoxy)-6-(methylcarbamoyl)-quinolin-4-yl]oxypyridin-3-yl]-1-N-(4-fluorophenyl)cyclopropane-1,1-dicarboxamide] |
| > 300 nM | > 300 nM | > 300 nM | COc1cc2nccc(Oc3cc(C)c(NC(=O)C4(C(=O)Nc5ccc(F)cc5)CC4)cn3)c2nc1OC [Compound 83, 1-N′-[6-[(6,7-Dimethoxy-1,5-naphthyridin-4-yl)oxy]-4-methylpyridin-3-yl]-1-N-(4-fluorophenyl)cyclopropane-1,1-dicarboxamide] |
| > 300 nM | > 300 nM | > 300 nM | COc1cc2nccc(Oc3ncc(NC(=O)C4(C(=O)Nc5ccc(F)cc5)CC4)cc3C#N)c2nc1OC [Compound 84, 1-N′-[5-Cyano-6-[(6,7-dimethoxy-1,5-naphthyridin-4-yl)oxy]pyridin-3-yl]-1-N-(4-fluorophenyl)cyclopropane-1,1-dicarboxamide] |
| > 300 nM | > 300 nM | > 300 nM | COc1cc2nccc(Oc3ncc(NC(=O)C4(C(=O)Nc5ccc(F)cc5)CC4)cc3C)c2nc1OC [Compound 85, 1-N′-[6-[(6,7-Dimethoxy-1,5-naphthyridin-4-yl)oxy]-5-methylpyridin-3-yl]-1-N-(4-fluorophenyl)cyclopropane-1,1-dicarboxamide] |
| 100 to 300 nM | > 300 nM | > 300 nM | COc1cc(Oc2ccnc3cc(OC)c(OC)nc23)ncc1NC(=O)C1(C(=O)Nc2ccc(F)cc2)CC1 [Compound 88, 1-N′-[6-[(6,7-Dimethoxy-1,5-naphthyridin-4-yl)oxy]-4-methoxypyridin-3-yl]-1-N-(4-fluorophenyl)cyclopropane-1,1-dicarboxamide] |
| > 300 nM | > 300 nM | > 300 nM | COc1cc2nccc(Oc3ncc(NC(=O)C4(C(=O)Nc5ccc(F)cc5)CC4)cc3C(F)(F)F)c2nc1OC [Compound 89, 1-N′-[6-[(6,7-Dimethoxy-1,5-naphthyridin-4-yl)oxy]-5-(trifluoromethyl)pyridin-3-yl]-1-N-(4-fluorophenyl)cyclopropane-1,1-dicarboxamide] |
| > 300 nM | > 300 nM | > 300 nM | COc1cc2nccc(Oc3nc(C)c(NC(=O)C4(C(=O)Nc5ccc(F)cc5)CC4)cc3Br)c2nc1OC [Compound 90, 1-N′-[5-Bromo-6-[(6,7-dimethoxy-1,5-naphthyridin-4-yl)oxy]-2-methylpyridin-3-yl]-1-N-(4-fluorophenyl)cyclopropane-1,1-dicarboxamide] |
| > 300 nM | > 300 nM | > 300 nM | COc1cc2nccc(Oc3ccc(NC(=O)C4(C(=O)Nc5ccc(F)cc5)CC4)c(C(N)=O)n3)c2nc1OC [Compound 91, 1-N′-[2-Carbamoyl-6-[(6,7-dimethoxy-1,5-naphthyridin-4-yl)oxy]pyridin-3-yl]-1-N-(4-fluorophenyl)cyclopropane-1,1-dicarboxamide] |
| > 300 nM | > 300 nM | > 300 nM | COc1cc2nccc(Oc3ncc(NC(=O)C4(C(=O)Nc5ccc(F)cc5)CC4)cc3OC)c2nc1OC [Compound 92, 1-N′-[6-[(6,7-Dimethoxy-1,5-naphthyridin-4-yl)oxy]-5-methoxypyridin-3-yl]-1-N-(4-fluorophenyl)cyclopropane-1,1-dicarboxamide] |
| > 300 nM | > 300 nM | > 300 nM | O=C(Nc1ccc(F)cc1)C1(C(=O)Nc2ccc(Oc3ccnc4cc5c(nc34)OCCO5)nc2)CC1 [Compound 103, 1-N′-[6-(2,3-Dihydro-[1,4]dioxino[2,3-b][1,5]naphthyridin-6-yloxy)pyridin-3-yl]-1-N-(4-fluorophenyl)cyclopropane-1,1-dicarboxamide] |
| > 300 nM | > 300 nM | > 300 nM | O=C(Nc1ccc(F)cc1)C1(C(=O)Nc2cnc(Oc3ccnc4cc5c(nc34)OCCO5)c(Cl)c2)CC1 [Compound 104, 1-N′-[5-Chloro-6-(2,3-dihydro-[1,4]dioxino[2,3-b][1,5]naphthyridin-6-yloxy)pyridin-3-yl]-1-N-(4-fluorophenyl)cyclopropane-1,1-dicarboxamide] |
| > 300 nM | > 300 nM | > 300 nM | O=C(Nc1ccc(F)cc1)C1(C(=O)Nc2cnc(Oc3ccnc4cc5c(nc34)OCCO5)c(F)c2)CC1 [Compound 105, 1-N′-[6-(2,3-Dihydro-[1,4]dioxino[2,3-b][1,5]naphthyridin-6-yloxy)-5-fluoropyridin-3-yl]-1-N-(4-fluorophenyl)cyclopropane-1,1-dicarboxamide] |
